The target in the test is T1, Aspergillus niger beta-glucosidase (CAB75696.1, SEQ ID NO:2) improved variant yEdQ885-BG (Aspergillus niger, UniProt Q9P8F4, Y363C/Y375F/Y610F).
T1 construct: strain yEdQ885, BG acid/base mutant #8
T1 sequence (Q9P8F4 20-860 Y363C/Y375F/Y610F): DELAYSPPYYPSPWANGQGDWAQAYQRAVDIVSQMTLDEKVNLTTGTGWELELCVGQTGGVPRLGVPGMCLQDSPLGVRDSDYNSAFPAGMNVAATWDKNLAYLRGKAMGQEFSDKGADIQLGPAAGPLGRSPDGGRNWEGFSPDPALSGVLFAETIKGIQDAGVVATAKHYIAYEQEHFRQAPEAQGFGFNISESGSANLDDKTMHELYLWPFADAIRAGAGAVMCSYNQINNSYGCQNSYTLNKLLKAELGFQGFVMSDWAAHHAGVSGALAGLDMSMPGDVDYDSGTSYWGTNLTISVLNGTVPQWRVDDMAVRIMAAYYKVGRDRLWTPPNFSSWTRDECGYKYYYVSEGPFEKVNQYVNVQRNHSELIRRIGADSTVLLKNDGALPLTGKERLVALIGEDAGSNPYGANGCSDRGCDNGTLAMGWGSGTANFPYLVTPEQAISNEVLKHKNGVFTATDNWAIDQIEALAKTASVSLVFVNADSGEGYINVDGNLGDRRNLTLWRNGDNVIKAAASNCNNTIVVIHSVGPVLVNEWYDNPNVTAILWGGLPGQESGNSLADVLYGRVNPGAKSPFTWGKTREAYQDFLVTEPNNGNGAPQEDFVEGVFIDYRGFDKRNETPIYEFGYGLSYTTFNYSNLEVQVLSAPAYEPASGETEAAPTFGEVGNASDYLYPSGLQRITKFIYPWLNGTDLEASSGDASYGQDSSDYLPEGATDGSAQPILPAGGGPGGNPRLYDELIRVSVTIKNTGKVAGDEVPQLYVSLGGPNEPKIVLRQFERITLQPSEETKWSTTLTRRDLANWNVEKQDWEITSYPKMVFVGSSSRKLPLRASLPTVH
Nature of the test: BG kinetics, cellobiose hydrolysis assay (HPLC) with glucose as competitive inhibitor, yEdQ885-BG. It is filed as biochemical. The source says:
The beta-glucosidase (BG) gene from Aspergillus niger (Accession #CAB75696.1) was integrated into the TR3 yeast background at the T4U3 genomic site.
High resolution enzyme assays and kinetic testing comparing the beta-glucosidases described herein and commercial enzyme preparations were pursued to more clearly quantify differences in mutant BG enzymes compared to the wild type BG enzyme. Based on data presented herein, BG mutant YEdQ885 was selected for further analysis and compared to the BG activity present in commercial preparations of SP188 (Novozymes) and Accellerase® BG (DuPont) as well as wild type BG.
The kinetic properties of beta glucosidase are important for cellulosic hydrolysis, since in commercial situations a wide range of substrate concentrations and different product inhibition conditions will be encountered. In this example, a Michaelis-Menten kinetics model was used to describe BG kinetics. To determine these kinetic properties, BG activity assays using standard substrates pNPG and cellobiose were employed. yEdQ745-BG (wild type) and yEdQ885-BG (improved), were compared with two commercial BGs, A-BG (Accellerase®) BG from Dupont) and S-BG (Novozymes SP188 from Sigma). […]

What is called Ki is the equilibrium dissociation constant of an inhibitor or competing ligand from its target. Low readings indicate higher affinity, high ones lower affinity. In the case of `OC[C@H]1OC(O)[C@H](O)[C@@H](O)[C@@H]1O` (some centres unmarked) [glucose], affinity was put at a Ki of 1.11 ± 0.19 mM. For the setting “inhibitor influence, Km for cellobiose / Ki for glucose, pH 4.8, 50° C.”, the Km/Ki is given as 1.31.

The values above are taken from patent US10077436B2, “Beta-glucosidase enzymes for increased biomass saccharification” (Edeniq, Inc., priority 2013, dated 2018).
